For experiment [1], the system named is S. aureus. As to the kind of experiment: Minimum inhibitory concentration of ARM-1 alone. Particulars: Staphylococcus aureus, constant for 196 hours of exposure. It is filed as cell-based. From the text:
(§1) FIGS. 4A-4C depict how ARM-1 inhibits the evolution of antibiotic resistance. FIG. 4A depicts the minimum inhibitory concentration of ARM-1 in E. coli and S. aureus. FIGS. 4B-4C depict the evolution of indicated species against (FIG. 4B) rifampicin and (FIG. 4C) trimethoprim in the presence of ARM-1. Heatmaps show median MIC over time. Concentrations are indicated to the right of each plot. Each strain and antibiotic is the result of at least 12 biological replicates. Concentration of ARM-1 used against L. monocytogenes, P. aeruginosa, and S. aureus is 100 μM. Concentration of ARM-1 used against S. typhimurium is 50 μM. Populations of bacteria are grown overnight in a series of increasing antibiotic concentrations, with or without ARM-1 present. The following day, the population from the highest tolerated concentration is re-challenged with higher concentrations of antibiotic. […]
(§2) Next, the effect of ARM-1 on the evolution of antibiotic resistance was examined. […] Using an assay previously developed, the impact of ARM-1 was assessed on resistance development across diverse pathogens and in response to multiple classes of antibiotics. […]
(§3) Evolution experiments were performed for the indicated strains. […] Optical densities were subsequently measured in an Epoch2 microplate spectrophotometer (BioTek). […]

The test system of experiment [2] is E. coli. As to the kind of experiment: Minimum inhibitory concentration of ARM-1 alone. It is filed as cell-based. The settings on record: Escherichia coli, constant for 196 hours of exposure.
Source text: as §1, §2, §3

One compound from patent US20260015333A1, “COMPOUNDS AND METHODS FOR INHIBITION OF THE EVOLUTION OF […]” (priority 2022, published 2026) can be followed below.

As to `Cc1cc(Br)ccc1-c1ccc(CNCCCN(C)C)o1` [ARM-1, N^1-((5-(4-bromo-2-methylphenyl)furan-2-yl)methyl)-N^3,N^3-dimethylpropane-1,3-diamine], the MIC in experiment [1] and in experiment [2] was 400 µM each time.

Usually MIC stands for the lowest concentration found to suppress growth.
